According to patent publication US12539333B2, “Tetracycline complexes with sustained activity” (FRAUNHOFER-GESELLSCHAFT ZUR FÖRDERUNG DER ANGEWANDTEN …, priority 2018, dated 2026):
Values after ≈ are worked out from the molar mass of the structure shown. “Also recorded” adds a separate entry of the source.

How the values were obtained:
[1] = Stability in aqueous environment (HPLC)
Protocol: For the stability investigations an Agilent 1200 Series system with a XTerra RP18 5 μm 3.9×150 column (Waters) was utilized. 10 μl sample volume were injected at a flowrate of 1.0 ml/min. For this method was also a gradient program applied. The mobile phase started with a composition of water/methanol (95/5+0.1% TFA) (A) and was shifted over 7 minutes to pure methanol (0.1% TFA) (B). After 3 minutes the mobile phase returned to solvent A within 1 minute. The retention time was 4.8 minutes. For the evaluation and extraction of the chromatograms, the Chem32 software was used.
For the stability investigation, 10 mg samples for minocycline and 20 mg for the complex were weighed into 4 ml glass vials. One of each vial was incubated in 4 ml of PBS pH 7.0 and another vial was exposed to 4 ml of an acidic solution at pH 2.3, which was adjusted with hydrochloric acid. Until the 9th day, samples were taken every day, while the removed volume was not replaced. From there on the intervals were stretched to 3 to 4 days.

[2] = tested on: Streptococcus gordonii ATCC 10558; experiment: MIC determination of eluates and calculated effective concentration of minocycline; type: cell-based; conditions: for Effective concentration of minocycline, calculated based on the MIC of the eluates (dilutions): S. gord.
Source text: (§1) In order to assess the release kinetics and biological activity of the active substances, an approach was chosen taking into consideration the conditions in the oral cavity, namely the flow rate (turnover) and composition of the sulcus in the gingival crevicular fluid (as described in Goodson, J M (2003), Periodontol 2000 31:43-54; Tew, J G et al. (1985), Infect Immun 49:487-93).

[3] = tested on: Porphyromonas gingivalis ATCC 33277; experiment: as above; type: cell-based; conditions: for Effective concentration of minocycline, calculated based on the MIC of the eluates (dilutions): P. ging.
Source text: as §1

S. aureus ATCC 29213 = experiment: Agar disc diffusion test; type: cell-based, Staphylococcus aureus; conditions: 30 μg of minocycline per disc; 35° C., 18 h
Protocol: . The procedure followed the recommendations set by EUCAST.
Test substance was the minocycline complex containing 10 mg/ml minocycline and controls were minocycline dissolved in ethanol (10 mg/ml), and pure ethanol. Solutions were diluted 3:7 with ethanol and immediately thereafter each 10 μl were pipetted to unloaded antibiotic test discs with a diameter of 6 mm (BD, Allschwil, Switzerland), thus each discs (except for ethanol control) contained 30 μg of minocycline. Overnight culture of S. aureus ATCC 29213 was suspended to McFarland 0.5, each 100 μl was spread on Mueller-Hinton-agar plate (Oxoid, Basingstoke, GB). Following the evaporation of the solvent, the test discs were placed on the plates. After incubation at 35° C. for 18 h, the diameters of the inhibition zones were measured.

## CN(C)c1ccc(O)c2c1C[C@H]1C[C@H]3[C@H](N(C)C)C(O)=C(C(N)=O)C(=O)[C@@]3(O)C(O)=C1C2=O [Minocycline, (4S,4aS,5aR,12aR)-4,7-bis(dimethylamino)-1,10,11,12a-tetrahydroxy-3,12-dioxo-4a,5,5a,6-tetrahydro-4H-tetracene-2-carboxamide]
[1]; PBS pH 7.0, 37° C.
  time within which the minocycline peak vanishes: ≤ 3 days
[1]; acidic conditions pH 2.3, 37° C.
  decay in aqueous environment: decomposition process is slower; also recorded: more moderate decay
[1]; buffer (PBS) pH 7.1, 37° C.
  time to complete decomposition: 3 days
[2]; Streptococcus gordonii, ATCC10558, S. gordonii ATCC 10558
  MIC: 0.5 µg/mL (≈ 1.09 µM)
[2]; eluate 1 h
  Effective concentration of minocycline, calculated based on the MIC of the eluates (dilutions): >16000
[2]; eluate 2 h
  Effective concentration of minocycline, calculated based on the MIC of the eluates (dilutions): 8000
[2]; eluate 4 h
  Effective concentration of minocycline, calculated based on the MIC of the eluates (dilutions): 2000
[2]; eluate 24 h
  Effective concentration of minocycline, calculated based on the MIC of the eluates (dilutions): 250
[2]; eluate 2 d
  Effective concentration of minocycline, calculated based on the MIC of the eluates (dilutions): 62.5
[2]; eluate 7 d
  Effective concentration of minocycline, calculated based on the MIC of the eluates (dilutions): 4
[2]; eluate 14 d
  Effective concentration of minocycline, calculated based on the MIC of the eluates (dilutions): <2
[2]; eluate 21 d
  Effective concentration of minocycline, calculated based on the MIC of the eluates (dilutions): <2
[2]; eluate 28 d
  Effective concentration of minocycline, calculated based on the MIC of the eluates (dilutions): <2
[2]; eluate 35 d
  Effective concentration of minocycline, calculated based on the MIC of the eluates (dilutions): <2
[2]; eluate 42 d
  Effective concentration of minocycline, calculated based on the MIC of the eluates (dilutions): <2
[3]; Porphyromonas gingivalis, ATCC33277, P. gingivalis ATCC 33277
  MIC: 0.25 µg/mL (≈ 0.546 µM)
[3]; eluate 1 h
  Effective concentration of minocycline, calculated based on the MIC of the eluates (dilutions): >32000
[3]; eluate 2 h
  Effective concentration of minocycline, calculated based on the MIC of the eluates (dilutions): 2000
[3]; eluate 4 h
  Effective concentration of minocycline, calculated based on the MIC of the eluates (dilutions): 1000
[3]; eluate 24 h
  Effective concentration of minocycline, calculated based on the MIC of the eluates (dilutions): 500
[3]; eluate 2 d
  Effective concentration of minocycline, calculated based on the MIC of the eluates (dilutions): 62.5
[3]; eluate 7 d
  Effective concentration of minocycline, calculated based on the MIC of the eluates (dilutions): 62.5
[3]; eluate 14 d
  Effective concentration of minocycline, calculated based on the MIC of the eluates (dilutions): 4
[3]; eluate 21 d
  Effective concentration of minocycline, calculated based on the MIC of the eluates (dilutions): <1
[3]; eluate 28 d
  Effective concentration of minocycline, calculated based on the MIC of the eluates (dilutions): <1
[3]; eluate 35 d
  Effective concentration of minocycline, calculated based on the MIC of the eluates (dilutions): <1
[3]; eluate 42 d
  Effective concentration of minocycline, calculated based on the MIC of the eluates (dilutions): <1
S. aureus ATCC 29213
  diameter of the inhibition zone: 26 mm

## 1:2 Complex of Minocycline (Free Base) and Magnesium Stearate [Example 1]
[1]; PBS pH 7.0, 37° C.
  time after which the minocycline peak is still visible: ≥ 3 weeks
[1]; neutral conditions, 37° C.
  decay in aqueous environment: much slower
S. aureus ATCC 29213
  diameter of the inhibition zone: 24 mm
